One assay has as its target T1, HDAC6 (Homo sapiens, UniProt Q9UBN7).
T1 sequence (Q9UBN7 1-1215): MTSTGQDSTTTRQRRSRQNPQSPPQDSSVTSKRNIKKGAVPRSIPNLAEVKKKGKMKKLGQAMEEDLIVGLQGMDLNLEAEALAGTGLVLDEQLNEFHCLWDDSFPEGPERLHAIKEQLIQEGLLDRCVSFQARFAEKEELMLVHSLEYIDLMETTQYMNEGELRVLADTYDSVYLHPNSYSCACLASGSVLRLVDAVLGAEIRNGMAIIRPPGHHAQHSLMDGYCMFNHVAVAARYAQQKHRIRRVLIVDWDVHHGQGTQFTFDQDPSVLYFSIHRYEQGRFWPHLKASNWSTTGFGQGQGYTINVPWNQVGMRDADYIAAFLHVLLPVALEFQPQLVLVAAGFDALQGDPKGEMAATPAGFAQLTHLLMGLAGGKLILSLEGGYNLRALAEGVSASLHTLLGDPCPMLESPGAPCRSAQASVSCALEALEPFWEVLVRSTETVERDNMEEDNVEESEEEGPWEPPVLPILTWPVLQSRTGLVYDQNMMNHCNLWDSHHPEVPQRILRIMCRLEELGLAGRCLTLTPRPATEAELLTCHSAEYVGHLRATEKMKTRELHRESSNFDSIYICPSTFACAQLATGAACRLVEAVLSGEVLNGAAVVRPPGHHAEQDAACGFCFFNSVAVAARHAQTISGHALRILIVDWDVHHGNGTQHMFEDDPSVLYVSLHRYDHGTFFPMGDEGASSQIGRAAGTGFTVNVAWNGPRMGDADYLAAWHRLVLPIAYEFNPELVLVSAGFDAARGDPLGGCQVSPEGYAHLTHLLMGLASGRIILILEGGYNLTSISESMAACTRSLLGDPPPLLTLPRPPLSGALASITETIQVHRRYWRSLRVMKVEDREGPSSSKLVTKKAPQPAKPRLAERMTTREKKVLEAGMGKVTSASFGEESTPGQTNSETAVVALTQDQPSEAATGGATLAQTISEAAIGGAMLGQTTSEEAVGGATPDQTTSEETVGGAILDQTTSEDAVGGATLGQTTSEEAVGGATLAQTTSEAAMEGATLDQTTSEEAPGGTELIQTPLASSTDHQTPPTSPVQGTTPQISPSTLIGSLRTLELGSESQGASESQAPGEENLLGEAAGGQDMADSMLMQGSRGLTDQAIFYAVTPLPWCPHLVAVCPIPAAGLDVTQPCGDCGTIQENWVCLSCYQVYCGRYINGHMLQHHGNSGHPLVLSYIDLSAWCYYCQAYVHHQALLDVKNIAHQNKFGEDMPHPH
The experiment in a line: HDAC assay, [3H]acetate-incorporated histones with immunoprecipitated FLAG-tagged HDAC6 (HDAC6F). The assay is classed as biochemical. The settings on record: [3H]-labeled histones, n=3. Also on record: made in house; host or cells: TAg Jurkat cells, transient transfection, anti-FLAG M2 immunoprecipitation. The method, then: Cell culture and Transfections. TAg-Jurkat cells were transfected by electroporation with 5 μg of FLAG-epitope-tagged pBJ5 constructs (as described in ref. 5c) for expression of recombinant proteins. Cells were harvested 48 h posttransfection.
HDAC assays. […] Compounds were added in DMSO such that final assay concentrations were 1% DMSO. IC50s were calculated using Prism 3.0 software. Curve fitting was done without constraints using the program's Sigmoidal-Dose Response parameters. All data points were acquired in duplicate and IC50s are calculated from the composite results of at least two separate experiments.
(§1) Tubulin and MAPs were isolated from bovine brain as described [See http://mitchison.med.harvard.edu/protocols/tubprep.html]. Whole brain and fractions from phosphocellulose chromatography were blotted for HDAC6 and acetylated α-tubulin. Cultured hippocampal neurons from dissociated 1-day old rat brains were transfected with an enhanced green fluorescent protein (EGFP)-actin construct at 4-5 days using the calcium phosphate method [E. N. Star, D. J. Kwiatkowski and V. N. Murthy, Nat. Neurosci. […] K. Miranti and M. E. Greenberg, J. Neurosci. […] Transfected cultures were allowed to grow for at least 48 h before the addition of experimental compounds.
(§2) [^3H]Acetate-incorporated histones were isolated from butyrate-treated HeLa cells as described [J. Taunton, C. […] Immunoprecipitates were incubated with acetylated histones and HDAC activity determined by scintillation counting as described [J. Taunton, C. […] TDAC assays were performed with immunoprecipitates using MAP-stabilized microtubules polymerized from MAP-rich tubulin fraction as described [C. […] Reactions were incubated (2 h) at 37° C., then incubated on ice (15 min).

For a further assay, the target named is T2, HDAC6F (Homo sapiens, UniProt Q9UBN7).
T2 construct: made in house; host or cells: TAg Jurkat cells, transient transfection, anti-FLAG M2 immunoprecipitation
T2 sequence (Q9UBN7 1-1215): T1 sequence (Q9UBN7 1-1215)
The assay can be described thus: in vitro tubulin deacetylase (TDAC) assay, immunoprecipitated wild-type HDAC6F, MAP-stabilized tubulin. The assay is classed as biochemical. Conditions: TSA 300 nM or 1 μM; tubacin, niltubacin, trapoxin B 1 μM.
Excerpt: as §1, §2

SMILES strings stand for the structures. “Also recorded” adds a separate entry of the source.

As to `CC(/C=C/C(=O)NO)=C\[C@@H](C)C(=O)c1ccc(N(C)C)cc1` [TSA, trichostatin A, reference compound], at HDAC6, the “inhibition of HDAC activity of wild-type HDAC6F” value is reported as “only partial inhibited by TSA or tubacin”. For the same compound, the “inhibition of TDAC activity of wild-type HDAC6F” value against HDAC6F was “inhibited by TSA (300 nM) or tubacin (1 μM); also recorded: inhibited α-tubulin deacetylation”.

Take `O=C(CCCCCCC(=O)Nc1ccc([C@@H]2OC(c3ccc(CO)cc3)C[C@H](CSc3nc(-c4ccccc4)c(-c4ccccc4)o3)O2)cc1)NO` (stereo partly shown) [tubacin]: on HDAC6, the “inhibition of HDAC activity of wild-type HDAC6F” value is on record as “only partial inhibited by TSA or tubacin”. The “inhibition of TDAC activity of wild-type HDAC6F” value on HDAC6F is “inhibited by TSA (300 nM) or tubacin (1 μM); also recorded: inhibited α-tubulin deacetylation”.

The values above are taken from patent US8178579B2, “Dioxanes and uses thereof” (President and Fellows of Harvard College, priority 2001, dated 2012).
